In experiment [1] the test system is P388. Briefly: Antineoplastic activity against mouse P388 cells allografted in CDF1 mouse at 100 mg/kg qd for 9 days relative to control. It counts as functional.
For experiment [2], the system named is P388. The experiment in a line: Antineoplastic activity against mouse P388 cells allografted in CDF1 mouse at 50 mg/kg qd for 9 days relative to control. In kind it is functional.
Experiment [3] deals with P388. The experiment in a line: Antineoplastic activity against mouse P388 cells allografted in CDF1 mouse assessed as survival at 50 mg/kg qd for 9 days. In kind it is functional, organism-based. The arrangement: dose 50 mg/kg.
The test system of experiment [4] is B16. Briefly: Antineoplastic activity against mouse B16 cells allografted in BDF1 mouse at 50 mg/kg qd for 9 days relative to control. It counts as functional.
Experiment [5] deals with B16. The experiment in a line: Antineoplastic activity against mouse B16 cells allografted in BDF1 mouse assessed as survival at 25 mg/kg qd for 9 days. It counts as functional, organism-based. The arrangement: dose 25 mg/kg.
In experiment [6] the test system is B16. Briefly: Antineoplastic activity against mouse B16 cells allografted in BDF1 mouse assessed as survival at 100 mg/kg qd for 9 days. The arrangement: dose 100 mg/kg. It counts as functional, organism-based.
Experiment [7] relates to B16. The experiment in a line: Antineoplastic activity against mouse B16 cells allografted in BDF1 mouse at 25 mg/kg qd for 9 days relative to control. In kind it is functional.
For experiment [8], the system named is P388. Briefly: Antineoplastic activity against mouse P388 cells allografted in CDF1 mouse assessed as survival at 100 mg/kg qd for 9 days. It counts as functional, organism-based. Set-up: dose 100 mg/kg.
Experiment [9] concerns B16. The experiment in a line: Antineoplastic activity against mouse B16 cells allografted in BDF1 mouse at 100 mg/kg qd for 9 days relative to control. In kind it is functional.
Experiment [10] concerns L1210. The experiment in a line: Antineoplastic activity against mouse L1210 cells allografted in CDF1 mouse at 25 mg/kg qd for 9 days relative to control. In kind it is functional.
Experiment [11] has as its system L1210. Briefly: Antineoplastic activity against mouse L1210 cells allografted in CDF1 mouse assessed as survival at 25 mg/kg qd for 9 days. In kind it is functional, organism-based. The arrangement: dose 25 mg/kg.
Experiment [12] deals with B16. The experiment in a line: Antineoplastic activity against mouse B16 cells allografted in BDF1 mouse assessed as survival at 50 mg/kg qd for 9 days. It counts as functional, organism-based. The arrangement: dose 50 mg/kg.
Experiment [13] deals with L1210. Briefly: Antineoplastic activity against mouse L1210 cells allografted in CDF1 mouse assessed as survival at 15 mg/kg qd for 9 days. It counts as functional, organism-based. The arrangement: dose 15 mg/kg.
Experiment [14] has as its system P388. The experiment in a line: Antineoplastic activity against mouse P388 cells allografted in CDF1 mouse assessed as survival at 40 mg/kg qd for 9 days. In kind it is functional, organism-based. Set-up: dose 40 mg/kg.
For experiment [15], the system named is P388. The experiment in a line: Antineoplastic activity against mouse P388 cells allografted in CDF1 mouse at 20 mg/kg qd for 9 days relative to control. It counts as functional.
For experiment [16], the system named is B16. Briefly: Antineoplastic activity against mouse B16 cells allografted in BDF1 mouse assessed as survival at 10 mg/kg qd for 9 days. In kind it is functional, organism-based. Set-up: dose 10 mg/kg.
The subject of experiment [17] is P388. Briefly: Antineoplastic activity against mouse P388 cells allografted in CDF1 mouse at 5 mg/kg qd for 9 days relative to control. It counts as functional.
Experiment [18] concerns B16. Briefly: Antineoplastic activity against mouse B16 cells allografted in BDF1 mouse assessed as survival at 80 mg/kg qd for 9 days. In kind it is functional, organism-based. Set-up: dose 80 mg/kg.
The subject of experiment [19] is B16. Briefly: Antineoplastic activity against mouse B16 cells allografted in BDF1 mouse at 40 mg/kg qd for 9 days relative to control. It counts as functional.
In experiment [20] the test system is Colon 26. Briefly: Antineoplastic activity against mouse Colon 26 cells allografted in CDF1 mouse at 10 mg/kg qd for 9 days relative to control. In kind it is functional.
Experiment [21] deals with B16. The experiment in a line: Antineoplastic activity against mouse B16 cells allografted in BDF1 mouse at 10 mg/kg qd for 9 days relative to control. It counts as functional.
Experiment [22] deals with P388. Briefly: Antineoplastic activity against mouse P388 cells allografted in CDF1 mouse at 40 mg/kg qd for 9 days relative to control. It counts as functional.
Experiment [23] has as its system B16. Briefly: Antineoplastic activity against mouse B16 cells allografted in BDF1 mouse at 80 mg/kg qd for 9 days relative to control. In kind it is functional.
In experiment [24] the test system is L1210. The experiment in a line: Antineoplastic activity against mouse L1210 cells allografted in CDF1 mouse at 15 mg/kg qd for 9 days relative to control. It counts as functional.
For experiment [25], the system named is L1210. Briefly: Antineoplastic activity against mouse L1210 cells allografted in CDF1 mouse at 30 mg/kg qd for 9 days relative to control. It counts as functional.
The test system of experiment [26] is P388. The experiment in a line: Antineoplastic activity against mouse P388 cells allografted in CDF1 mouse assessed as survival at 20 mg/kg qd for 9 days. It counts as functional, organism-based. The arrangement: dose 20 mg/kg.
Experiment [27] concerns B16. The experiment in a line: Antineoplastic activity against mouse B16 cells allografted in BDF1 mouse at 20 mg/kg qd for 9 days relative to control. In kind it is functional.
Experiment [28] relates to P388. Briefly: Antineoplastic activity against mouse P388 cells allografted in CDF1 mouse assessed as survival at 10 mg/kg qd for 9 days. It counts as functional, organism-based. The arrangement: dose 10 mg/kg.
In experiment [29] the test system is B16. The experiment in a line: Antineoplastic activity against mouse B16 cells allografted in BDF1 mouse assessed as survival at 20 mg/kg qd for 9 days. It counts as functional, organism-based. Set-up: dose 20 mg/kg.
For experiment [30], the system named is P388. Briefly: Antineoplastic activity against mouse P388 cells allografted in CDF1 mouse at 10 mg/kg qd for 9 days relative to control. It counts as functional.
Experiment [31] has as its system Colon 26. Briefly: Antineoplastic activity against mouse Colon 26 cells allografted in CDF1 mouse at 20 mg/kg qd for 9 days relative to control. It counts as functional.
Experiment [32] relates to P388. The experiment in a line: Antineoplastic activity against mouse P388 cells allografted in CDF1 mouse assessed as survival at 5 mg/kg qd for 9 days. It counts as functional, organism-based. The arrangement: dose 5 mg/kg.
Experiment [33] has as its system Colon 26. Briefly: Antineoplastic activity against mouse Colon 26 cells allografted in CDF1 mouse assessed as survival at 20 mg/kg qd for 9 days. It counts as functional, organism-based. The arrangement: dose 20 mg/kg.
Experiment [34] concerns B16. The experiment in a line: Antineoplastic activity against mouse B16 cells allografted in BDF1 mouse assessed as survival at 40 mg/kg qd for 9 days. In kind it is functional, organism-based. Set-up: dose 40 mg/kg.

Calls of active or inactive are those of the source. No cut-off for these calls is given here.

The text below walks through data of ChEMBL document CHEMBL3244053, “Structural modification study of bis(substituted aminoalkylamino)anthraquinones. An evaluation of the relationship of the [2-[(2-hydroxyethyl)amino]ethyl]amino side chain with antineoplastic activity” (1979).

As for `O=C1C=C(NCCNCCO)C(=O)c2ccccc21`, the values for the T/C in the experiment on P388 [1] and in the experiment on P388 [2] were 93% and 103%, respectively.
With `CN(C)CCOc1cccc2c1C(=O)c1ccccc1C2=O`, the outcome with P388 [3], in the experiment with B16 [5], with B16 [6] and in the experiment with P388 [8] was Active. In addition, the T/C in the experiment with B16 [4] was 97%; in the experiment with P388 [1] it was 109%; in the experiment with B16 [7], 93%; in the experiment on P388 [2], 107%; with B16 [9], 104%.
Take `OCCNCCNc1ccnc2cc(Cl)ccc12`: the T/C with L1210 [10] is listed as 111%; in the experiment with B16 [4], 99%; in the experiment on P388 [1], 118%; in the experiment with P388 [2] it was 116%; in the experiment on B16 [9], 110%. The outcome with P388 [3], in the experiment on B16 [6], with P388 [8], with L1210 [11] and in the experiment with B16 [12] was Active.
Take `CN(C)CCNc1ccc(NCCN(C)C)c2c1C(=O)c1ccccc1C2=O`: the result in the experiment on L1210 [13], in the experiment on P388 [14], in the experiment with B16 [16], in the experiment with B16 [18], in the experiment with P388 [26] and with P388 [28] was Active. The outcome in the experiment on B16 [29], with P388 [32], in the experiment on Colon 26 [33] and in the experiment with B16 [34] was Active. The T/C with P388 [15] is given as 163%; in the experiment with P388 [17] it was 133%; with B16 [19], 148%; in the experiment with Colon 26 [20] it was 123%; in the experiment on B16 [21] it was 125%; in the experiment with P388 [22], 202%. The T/C in the experiment with B16 [23] amounted to 146%; with L1210 [24] it was 117%; in the experiment on L1210 [25], 150%; in the experiment with B16 [27], 142%; with P388 [30] it was 149%; with Colon 26 [31], 113%.
